Values belong to the molecule of their own block, whether it stands above or below them.
Legend:
[1] = test system: HCT116; test: In vivo solid tumor disease model, HCT116 xenograft; parameters: species or system female athymic CD 1 mice; settings: 14 days
[2] = test system: U87 cells; test: In vivo solid tumor disease model, U87 xenograft; parameters: species or system female athymic CD 1 mice; settings: U87MG
Text: (§1) In Vivo Solid Tumor Disease Model
(§2) This test measures the capacity of compounds to inhibit solid tumor growth.
(§3) Tumor xenografts were established in the flank of female athymic CD 1 mice (Charles River Inc.), by subcutaneous injection of 1×10^6U87, A431 or SKLMS cells/mouse. Once established, tumors were then serially passaged s.c. in nude mice hosts. Tumor fragments from these host animals were used in subsequent compound evaluation experiments. For compound evaluation experiments female nude mice weighing approximately 20 g were implanted s.c. by surgical implantation with tumor fragments of ˜30 mg from donor tumors. When the tumors were approximately 100 mm^3 in size (˜7-10 days following implantation), the animals were randomized a separated into treatment and control groups. Each group contained 6-8 tumor-bearing mice, each of which was ear-tagged and followed individually throughout the experiment
(§4) Mice were weighed and tumor measurements are taken by calipers three times weekly, starting on Day 1. These tumor measurements were converted to tumor volume by the well-known formula (L+W/4)^34/3π. The experiment was terminated when the control tumors reached a size of approximately 1500 mm^3. In this model, the change in mean tumor volume for a compound treated group/the change in mean tumor volume of the control group (non-treated or vehicle treated)×100 (ΔT/ΔC) was subtracted from 100 to give the percent tumor growth inhibition (% TGI) for each test compound. In addition to tumor volumes, body weight of animals were monitored twice weekly for up to 3 weeks.
(§5) Regiment of administration was once daily.

[3] = biological target: TPR-MET fusion protein (Homo sapiens, UniProt P08581); test: C-Met phosphorylation cell-based assay (MNNGHOS cells, immunoblot); settings: Table 30, 3 hours treatment, read-out: C-Met cell-based Y1230-34-35 tpr-met inhibition (IC50)
Text: C-Met Phosphorylation Cell-Based Assay

[4] = biological target: T1, recombinant human c-Met/HGF receptor (Homo sapiens, UniProt P08581); test: In vitro receptor tyrosine kinase assay (DELFIA), c-Met/HGF receptor; format: biochemical; settings: Table 30; ATP 10 uM, enzyme 25 nM; read-out: C-Met (enz.) (IC50)
T1 construct: His tag (histidine tag from pBlueBacHis2A); made in house; host or cells: Hi-5 cells (Trichoplusia ni), recombinant baculovirus

[5] = biological target: T2, VEGF receptor KDR (Homo sapiens, UniProt P35968); test: In vitro receptor tyrosine kinase assay (DELFIA), VEGF receptor KDR; format: biochemical; settings: Table 30; ATP 0.6 uM, enzyme 5 nM; read-out: VEGF(enz.) (IC50)
T2 construct: made in house; host or cells: Sf9 cells (Spodoptera frugiperda), recombinant baculovirus

[6] = test system: A549; test: In vivo solid tumor disease model, A549 xenograft; parameters: species or system female athymic CD 1 mice
[7] = test system: DU145; test: In vivo solid tumor disease model, DU145 xenograft; parameters: species or system female athymic CD 1 mice; settings: 10 days
[8] = test system: A431 cells; test: In vivo solid tumor disease model, A431 xenograft; parameters: species or system female athymic CD 1 mice; settings: 30 mg/kg once daily IP, vehicle DMSO, 14 days
Text: as §1, §2, §3, §4, §5

[9] = test system: SKLMS cells; test: In vivo solid tumor disease model, SKLMS xenograft; parameters: species or system female athymic CD 1 mice; settings: SKLMS40; 15 mg/kg once daily IP; vehicle DMSO; 10 days
Text: as §1, §2, §3, §4, §5

[10] = 30 mg/kg once daily IP, vehicle DMSO, 14 days
[11] = 15 mg/kg once daily IP, vehicle DMSO
[12] = 75 mg/kg once daily PO, vehicle 5% DMSO - 1% Tween-80 in water, 14 days

T2 sequence (P35968 806-1356): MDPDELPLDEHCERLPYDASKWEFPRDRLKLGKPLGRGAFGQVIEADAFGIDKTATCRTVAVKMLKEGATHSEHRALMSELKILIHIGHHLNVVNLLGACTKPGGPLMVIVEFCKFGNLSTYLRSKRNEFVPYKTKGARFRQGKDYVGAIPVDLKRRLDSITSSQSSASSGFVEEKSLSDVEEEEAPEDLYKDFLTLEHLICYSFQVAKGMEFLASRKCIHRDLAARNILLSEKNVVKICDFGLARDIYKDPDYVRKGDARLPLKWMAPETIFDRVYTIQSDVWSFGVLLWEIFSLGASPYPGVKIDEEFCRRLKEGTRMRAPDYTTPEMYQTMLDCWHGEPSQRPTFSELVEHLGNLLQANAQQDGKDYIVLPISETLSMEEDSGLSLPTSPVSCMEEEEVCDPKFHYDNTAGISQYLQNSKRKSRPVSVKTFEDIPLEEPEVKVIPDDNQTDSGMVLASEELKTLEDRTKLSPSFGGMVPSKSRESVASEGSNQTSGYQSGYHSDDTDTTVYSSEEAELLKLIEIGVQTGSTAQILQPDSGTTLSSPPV
T1 sequence (P08581 1078-1337): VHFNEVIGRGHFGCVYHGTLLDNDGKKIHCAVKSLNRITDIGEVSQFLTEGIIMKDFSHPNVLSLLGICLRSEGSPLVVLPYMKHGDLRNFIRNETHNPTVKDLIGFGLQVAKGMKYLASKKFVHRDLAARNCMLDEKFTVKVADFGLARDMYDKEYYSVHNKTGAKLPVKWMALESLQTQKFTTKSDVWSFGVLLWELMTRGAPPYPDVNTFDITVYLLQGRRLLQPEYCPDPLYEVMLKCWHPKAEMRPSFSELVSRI
Chain of TPR-MET fusion protein (P08581 with tags, fused parts or gaps): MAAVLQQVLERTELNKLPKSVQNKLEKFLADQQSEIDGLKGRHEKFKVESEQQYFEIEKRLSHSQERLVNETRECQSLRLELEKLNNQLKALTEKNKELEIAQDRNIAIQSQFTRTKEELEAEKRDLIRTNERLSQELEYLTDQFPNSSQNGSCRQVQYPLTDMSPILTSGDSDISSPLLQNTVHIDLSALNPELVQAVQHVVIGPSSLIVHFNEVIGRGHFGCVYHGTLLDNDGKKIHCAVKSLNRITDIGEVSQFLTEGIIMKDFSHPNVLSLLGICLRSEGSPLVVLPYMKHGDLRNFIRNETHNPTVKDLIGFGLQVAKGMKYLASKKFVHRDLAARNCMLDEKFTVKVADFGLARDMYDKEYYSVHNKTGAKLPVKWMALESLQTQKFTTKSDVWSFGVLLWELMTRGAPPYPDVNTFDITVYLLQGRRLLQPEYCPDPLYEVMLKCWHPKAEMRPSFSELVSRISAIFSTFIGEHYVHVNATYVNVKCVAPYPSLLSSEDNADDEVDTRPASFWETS

IC50 [3]: < 50 nM
IC50 [4]: 50 to 250 nM
IC50 [5]: < 50 nM
Structure (SMILES): O=C(Cc1ccccc1)NC(=S)Nc1ccc(Oc2ccnc3cc(-c4nccs4)sc23)c(F)c1 [Example 12, 1-(4-(2-(Thiazol-2-yl)thieno[3,2-b]pyridin-7-yloxy)-3-fluorophenyl)-3-(2-phenylacetyl)thiourea]
Tumor Growth Inhibition (%) ([1]; HST116, 30 mg/kg once daily IP, vehicle DMSO): c (% TGI in the range of 25-49)
Tumor Growth Inhibition (%) [2, 10]: b (% TGI in the range of 50-74)

IC50 [3]: < 50 nM
IC50 [4]: 50 to 250 nM
IC50 [5]: < 50 nM
Structure (SMILES): O=C(Cc1ccccc1)NC(=S)Nc1ccc(Oc2ccnc3cc(C(=O)N4CCCC4)sc23)c(F)c1 [Example 37, 1-{3-Fluoro-4-[2-(pyrrolidine-1-carbonyl)-thieno[3,2-b]pyridin-7-yloxy]-phenyl}-3-phenylacetyl-thiourea]
Tumor Growth Inhibition (%) [6, 10]: c (% TGI in the range of 25-49)
Tumor Growth Inhibition (%) ([2]; 15 mg/kg once daily IV, vehicle 50/50 DMSO:40/60 PEG/0.2 N HCl in saline, 10 days): b (% TGI in the range of 50-74)
Tumor Growth Inhibition (%) ([2]; 30 mg/kg once daily IV, vehicle 50/50 DMSO:40/60 PEG/0.2 N HCl in saline, 10 days): c (% TGI in the range of 25-49)
Tumor Growth Inhibition (%) [7, 11]: d (% TGI in the range of 0-24)
Tumor Growth Inhibition (%) ([7]; 30 mg/kg once daily IP, vehicle DMSO): d (% TGI in the range of 0-24)
Tumor Growth Inhibition (%) [8]: b (% TGI in the range of 50-74)

Structure (SMILES): O=C(Cc1ccccc1)NC(=S)Nc1ccc(Oc2ccnc3cc(C(=O)N4CC[C@@H](O)C4)sc23)c(F)c1 [Example 38, (R)-N-(3-Fluoro-4-(2-(3-hydroxypyrrolidine-1-carbonyl)thieno[3,2-b]pyridin-7-yloxy)phenylcarbamothioyl)-2-phenylacetamide]
Tumor Growth Inhibition (%) [6, 10]: c (% TGI in the range of 25-49)
Tumor Growth Inhibition (%) [8]: c (% TGI in the range of 25-49)

IC50 [5]: < 50 nM
Structure (SMILES): Cn1cnnc1-c1cc2nccc(Oc3ccc(NC(=S)NC(=O)Cc4ccccc4)cc3F)c2s1 [Example 75, N-(3-Fluoro-4-(2-(4-methyl-4H-1,2,4-triazol-3-yl)thieno[3,2-b]pyridin-7-yloxy)phenylcarbamothioyl)-2-phenylacetamide]
Tumor Growth Inhibition (%) ([6]; 75 mg/kg once daily PO, vehicle 5% DMSO - 1% Tween-80 in water, 12 days): b (% TGI in the range of 50-74)
Tumor Growth Inhibition (%) ([2]; 15 mg/kg once daily IP, vehicle DMSO, 10 days): d (% TGI in the range of 0-24)
Tumor Growth Inhibition (%) ([2]; 30 mg/kg once daily IP, vehicle DMSO, 10 days): c (% TGI in the range of 25-49)
Tumor Growth Inhibition (%) [2, 10]: c (% TGI in the range of 25-49)
Tumor Growth Inhibition (%) ([2]; 100 mg/kg once daily PO, vehicle 5% DMSO - 1% Tween-80 in water, 14 days): b (% TGI in the range of 50-74)
Tumor Growth Inhibition (%) [9]: b (% TGI in the range of 50-74)
Tumor Growth Inhibition (%) [7, 11]: c (% TGI in the range of 25-49)

Structure (SMILES): Cn1cnc(-c2cc3nccc(Oc4ccc(NC(=S)NC(=O)Cc5ccccc5)cc4F)c3s2)c1 [Example 76, N-(3-Fluoro-4-(2-(1-methyl-1H-imidazol-4-yl)thieno[3,2-b]pyridin-7-yloxy)phenylcarbamothioyl)-2-phenylacetamide]
Tumor Growth Inhibition (%) [6, 10]: b (% TGI in the range of 50-74)
Tumor Growth Inhibition (%) ([6]; 75 mg/kg once daily PO, vehicle 5% DMSO - 1% Tween-80 in water, 10 days): b (% TGI in the range of 50-74)
Tumor Growth Inhibition (%) [6, 12]: c (% TGI in the range of 25-49)
Tumor Growth Inhibition (%) ([7]; 75 mg/kg once daily PO, vehicle 5% DMSO - 1% Tween-80 in water): c (% TGI in the range of 25-49)

Structure (SMILES): Cl.O=C(Cc1c(F)cccc1F)NC(=S)Nc1ccc(Oc2ccnc3cc(C(=O)N4CCCC4)sc23)c(F)c1 [Example 157, 2-(2,6-Difluorophenyl)-N-(3-fluoro-4-(2-(pyrrolidine-1-carbonyl)thieno[3,2-b]pyridin-7-yloxy)phenylcarbamothioyl)acetamide hydrochloride]
Tumor Growth Inhibition (%) [6, 10]: c (% TGI in the range of 25-49)
Tumor Growth Inhibition (%) [8]: c (% TGI in the range of 25-49)

Structure (SMILES): CCn1cnc(-c2cc3nccc(Oc4ccc(NC(=S)NC(=O)Cc5ccccc5F)cc4F)c3s2)c1 [Example 242, 1-{4-[2-(1-Ethyl-1H-imidazol-4-yl)-thieno[3,2-b]pyridin-7-yloxy]-3-fluoro-phenyl}-3-[2-(2-fluoro-phenyl)-acetyl]-thiourea]
Tumor Growth Inhibition (%) ([1]; HCT116, 75 mg/kg once daily PO, vehicle 5% DMSO - 1% Tween-80 in water): b (% TGI in the range of 50-74)
Tumor Growth Inhibition (%) [2, 12]: a (% TGI in the range of 75-100)

Source: patent US20100249145A1, “Inhibitors of VEGF Receptor and HGF Receptor Signaling” (Methylgene, Inc., priority 2005, published 2010)
